In patent US10562842B2, “Use of polyaminoisoprenyl derivatives in antibiotic or antiseptic treatment” (UNIVERSITE D'AIX-MARSEILLE, priority 2011, dated 2020):
≈ marks a conversion by molar mass, not a printed value.

Experiments:
BN10055ΔacrB [1] = assay: MIC of antibiotics ± test compound (MIC ratio), micro-broth dilution; assay type: cell-based, Salmonella enterica serovar Typhimurium; settings: compound at MIC/4
[2] = system: Salmonella Thyphimurium MDR BN10055; assay: as above; assay type: cell-based, Salmonella enterica serovar Typhimurium; settings: compound at MIC/4; for MIC ratio (*) on BN10055 Chl: chloramphenicol; for MIC ratio (*) on BN10055 Nal: nalidixic acid
[3] = system: Enterobacter aerogenes MDR Ea289; assay: as above; assay type: cell-based
How it was run: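 Chloramphenicol MICs against MDR Enterobacter aerogenes Ea289 were determined by broth microdilution in MH broth (two-fold serial dilutions), alone and with test compound at MIC/4. MIC ratio = MIC of antibiotic alone ÷ MIC with compound. Each determination was repeated in at least three independent experiments.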

PAO1 = assay: as above; assay type: cell-based, Pseudomonas aeruginosa; settings: compound at MIC/4
Experimental: (§1) Susceptibilities to antibiotics and compounds were determined in microplates by broth dilution method, as previously described. Minimal Inhibitory Concentrations (MICs) were determined with an inoculum of 10^6 CFU in 200 μL of MH broth containing two-fold serial dilutions of each drug. […] All MIC determinations were repeated at least three times in independent experiments.
(§2) The MICs of chloramphenicol±test compounds (MIC/4) were determined by the micro-broth dilution method (9). All MIC determinations were repeated at least three times in independent experiments. The MIC ratio corresponds to the ratio of the MIC of an antibiotic alone to the MIC of the same antibiotic in the presence of the tested compound (at MIC/4).
(§3) For reminder, the MIC ratio corresponds to the ratio of the MIC of the assessed antibiotic alone to the MIC of the same antibiotic in the presence of the tested compound (at MIC/4).

PA124 = assay: as above; assay type: cell-based, Pseudomonas aeruginosa; settings: compound at MIC/4
Experimental: as §1, §2, §3

Ea27 = assay: as above; assay type: cell-based, Enterobacter aerogenes; settings: compound at MIC/4; Example 4
Experimental: as §1, §2, §3

ATCC 13048 = assay: as above; assay type: cell-based, Enterobacter aerogenes; settings: compound at MIC/4; Example 4
Experimental: as §1, §2, §3

CM64 = assay: as above; assay type: cell-based, Enterobacter aerogenes; settings: compound at MIC/4; Example 4
Experimental: as §1, §2, §3

Ea289ΔacrB (Ea294) = assay: as above; assay type: cell-based, Enterobacter aerogenes; settings: compound at MIC/4
Experimental: The Enterobacter aerogenes Ea289 strain is a Kans derivative of the MDR clinical isolate Ea27, the acrB mutant, EaEP294, was constructed from Ea289. Multidrug-resistant Salmonella enterica serovar Typhimurium DT104 strains (BN10055) was isolated from cattle in France, the isogenic acrB derivative mutant, BN10055ΔacrB, was constructed from BN10055. Strains were maintained at −80° C. in 25% (v/v) glycerol for cryoprotection. Bacteria were routinely grown in Mueller-Hinton (MH) broth at 37° C.
as §1
[…] All MIC determinations were repeated at least three times in independent experiments. The MIC ratio corresponds to the ratio of the MIC of an antibiotic alone to the MIC of the same antibiotic in the presence of the tested compound (at MIC/4).
as §3

BN10055ΔacrB [4] = assay: MIC by broth dilution (intrinsic MIC); assay type: cell-based, Salmonella enterica; settings: Salmonella BN10055ΔacrB
Experimental: as §1

BN10055 = assay: MIC by broth dilution (intrinsic MIC); assay type: cell-based, Salmonella enterica; settings: Salmonella enterica; Salmonella BN10055
Experimental: as §1

[5] = system: strain IV2570060 - Escherichia coli cattle (sensible); assay: MIC of antibiotics in the presence and absence of test compound, veterinary strains; assay type: cell-based; settings: compound at the Concentration (μM) (4-50)
Experimental: (§4) For each strain and each antibiotic, the MICs were determined in the presence and in the absence of one test compound.

[6] = system: strain IV2570533 - Escherichia coli cattle (resistant); assay: as above; assay type: cell-based; settings: compound at the Concentration (μM) (0.896-12.6)
Experimental: as §4

Ea289 = assay: MIC by broth dilution (intrinsic MIC); assay type: cell-based, Enterobacter aerogenes; settings: Klebsiella aerogenes; Enterobacter Ea289
Experimental: as §1

Ea294 = assay: MIC by broth dilution (intrinsic MIC); assay type: cell-based, Enterobacter aerogenes; settings: Klebsiella aerogenes, read-out: intrinsic MIC, Ea294
Experimental: as §1

[7] = system: strain IV2571418 - Escherichia coli pig (resistant); assay: MIC of antibiotics in the presence and absence of test compound, veterinary strains; assay type: cell-based; parameters: MIC for strain IV2571418, Doxycycline in the presence of test compound: unit not given beside the values; settings: compound at the Concentration (μM) (4-50)
Experimental: as §4

AG100 = assay: MIC of antibiotics ± test compound (MIC ratio), micro-broth dilution; assay type: cell-based, Escherichia coli; settings: compound at MIC/4; Example 4
Experimental: as §1, §2, §3

AB1 = assay: as above; assay type: cell-based, Acinetobacter baumannii; settings: compound at MIC/4
Experimental: as §1, §2, §3

ATCC 19606 = assay: as above; assay type: cell-based, Acinetobacter baumannii; settings: compound at MIC/4
Experimental: as §1, §2, §3

[8] = system: Enterobacter aerogenes MDR Ea289; assay: as above; assay type: cell-based; settings: compound at MIC/4, Set 2

CC(C)=CCCC(C)=CCNCCCN(CCCN)CCCN (racemic) [Compound 11, {3-[Bis-(3-amino-propyl)-amino]-propyl}-(3,7-dimethyl-octa-2,6-dienyl)-amine]
MIC ratio(*) on BN10055ΔacrB Chl (BN10055ΔacrB [1]; chloramphenicol, Set 1): 2 | MIC ratio Chloramphenicol S. enterica BN1005ΔacrB (BN10055ΔacrB [1]; Example 4): 2 | MIC ratio Doxycycline S. enterica BN1005ΔacrB (BN10055ΔacrB [1]; Example 4): 2 | MIC ratio Nalidixic acid S. enterica BN1005ΔacrB (BN10055ΔacrB [1]; Example 4): 2 | MIC ratio(*) on BN10055ΔacrB Ery (BN10055ΔacrB [1]; erythromycin, Set 1): 8 | MIC ratio(*) on BN10055ΔacrB Nal (BN10055ΔacrB [1]; nalidixic acid, Set 1): 2 | MIC ratio (*) on BN10055 Chl ([2]; Set 1): 16 | MIC ratio (*) on BN10055 Chl ([2]; Set 2): 16 | MIC ratio Chloramphenicol S. enterica BN10055 ([2]; Example 4): 16 | MIC ratio Doxycycline S. enterica BN10055 ([2]; Example 4): 16 | MIC ratio Nalidixic acid S. enterica BN10055 ([2]; Example 4): 128 | MIC ratio (*) on BN10055 Dox ([2]; doxycycline, Set 2): 16 | MIC ratio(*) on BN10055 Ery ([2]; erythromycin, Set 1): 8 | MIC ratio (*) on BN10055 Nal ([2]; Set 1): 128 | MIC ratio (*) on BN10055 Nal ([2]; Set 2): 128 | Effective concentration (mM) for a MIC ratio of chloramphenicol ≥ 8 on Ea289 ([3]; chloramphenicol): 0.0078 mM | efficient concentration, times lower than the control PAβN ([3]; chloramphenicol MIC ratio of 8 on Ea289): about 4.9 times | activity, effective concentration compared with PAβN to reach a MIC ratio of 8 ([3]; chloramphenicol on Ea289): strong activity | MIC ratio (*) on Ea289 Chl ([3]; chloramphenicol, compound at MIC/4, Set 1): 16 | MIC ratio (*) on Ea289 Chl ([3]; chloramphenicol, compound at MIC/4, Set 2): 8 | MIC ratio Chloramphenicol E. aerogenes Ea289 ([3]; compound at MIC/4, Example 4): 8 | MIC ratio Doxycycline E. aerogenes Ea289 ([3]; compound at MIC/4, Example 4): 32 | MIC ratio Nalidixic acid E. aerogenes Ea289 ([3]; compound at MIC/4, Example 4): 8 | MIC ratio(*) on Ea289 Ery ([3]; erythromycin, compound at MIC/4, Set 1): 32 | MIC ratio (*) on Ea289 Nal ([3]; nalidixic acid, compound at MIC/4, Set 1): 8 | MIC ratio Cefepime Pseudomonas aeruginosa PAO1 (PAO1): 1 | MIC ratio Doxycycline Pseudomonas aeruginosa PAO1 (PAO1): >16 | MIC ratio Cefepime Pseudomonas aeruginosa PA124 (PA124): 1 | MIC ratio Chloramphénicol Pseudomonas aeruginosa PA124 (PA124): 128 | MIC ratio Doxycycline Pseudomonas aeruginosa PA124 (PA124): >32 | MIC ratio Tetracycline Pseudomonas aeruginosa PA124 (PA124): 8 | MIC ratio Chloramphenicol E. aerogenes Ea27 (Ea27): >4 | MIC ratio Doxycycline E. aerogenes Ea27 (Ea27): 32 | MIC ratio Oxacillin E. aerogenes Ea27 (Ea27): 1 | MIC ratio Chloramphenicol E. aerogenes ATCC13048 (ATCC 13048): >32 | MIC ratio Doxycycline E. aerogenes ATCC13048 (ATCC 13048): 64 | MIC ratio Oxacillin E. aerogenes ATCC13048 (ATCC 13048): >8 | MIC ratio Chloramphenicol E. aerogenes CM64 (CM64): 16 | MIC ratio Oxacillin E. aerogenes CM64 (CM64): >8 | MIC ratio(*) on Ea289ΔacrB Chl (Ea289ΔacrB (Ea294); chloramphenicol, Set 1): 16 | MIC ratio Chloramphenicol E. aerogenes Ea294 (Ea289ΔacrB (Ea294); Example 4): 16 | MIC ratio Doxycycline E. aerogenes Ea294 (Ea289ΔacrB (Ea294); Example 4): 4 | MIC ratio Nalidixic acid E. aerogenes Ea294 (Ea289ΔacrB (Ea294); Example 4): 8 | MIC ratio(*) on Ea289ΔacrB Ery (Ea289ΔacrB (Ea294); erythromycin, Set 1): 16 | MIC ratio(*) on Ea289ΔacrB Nal (Ea289ΔacrB (Ea294); nalidixic acid, Set 1): 8 | intrinsic MIC, BN10055ΔacrB (BN10055ΔacrB [4]): 15 µM | MIC (BN10055): 31 µM (≈ 10.1 µg/mL) | MIC for strain IV2570060, Doxycycline in the presence of test compound [5]: 0.0625 | MIC for strain IV2570060, Tylosine in the presence of test compound [5]: 4 | MIC for strain IV2570533, Doxycycline in the presence of test compound [6]: 1 | MIC for strain IV2570533, Tylosine in the presence of test compound [6]: 4 | MIC (Ea289): 31 µM (≈ 10.1 µg/mL) | MIC (Ea294): 15 µM (≈ 4.87 µg/mL) | MIC for strain IV2571418, Doxycycline in the presence of test compound [7]: 2 | MIC for strain IV2571418, Tylosine in the presence of test compound [7]: 4 | MIC ratio Chloramphenicol E. Coli AG100 (AG100): 16 | MIC ratio Doxycycline E. Coli AG100 (AG100): >32 | MIC ratio Oxacillin E. Coli AG100 (AG100): 16 | MIC ratio Cefepime Acinetobacter baumannii AB1 (AB1): 1 | MIC ratio Chloramphénicol Acinetobacter baumannii AB1 (AB1): 16 | MIC ratio Doxycycline Acinetobacter baumannii AB1 (AB1): 2 | MIC ratio Tetracycline Acinetobacter baumannii AB1 (AB1): 2 | MIC ratio Cefepime Acinetobacter baumannii ATCC19606 (ATCC 19606): 4-8 | MIC ratio Chloramphénicol Acinetobacter baumannii ATCC19606 (ATCC 19606): 8 | MIC ratio Doxycycline Acinetobacter baumannii ATCC19606 (ATCC 19606): 1 | MIC ratio Tetracycline Acinetobacter baumannii ATCC19606 (ATCC 19606): 8 | MIC ratio (*) on Ea289 Dox ([8]; doxycycline): 32 | MIC ratio (*) on Ea289 Nal ([8]; nalidixic acid): 8
